In paper PMC8198038, “In Vitro Evaluation of Antiproliferative Properties of Novel Organotin(IV) Carboxylate Compounds with Propanoic Acid Derivatives on a Panel of Human Cancer Cell Lines” (Molecules, 2021):

Tested on: MCF-7 cells
Experiment: Activation of caspases (apostat, flow cytometry)
Type: cell-based, human
Text: The activation of caspase is closely linked to cell apoptosis, the controlled cell death, via the mitochondrial pathway or cell death receptor [23, 24]. […] Due to this, it can be concluded that cell death is accomplished through caspase-independent apoptosis. Moreover, as MCF-7 cell line is caspase-3 deficient, this was an anticipated result. Besides, the accomplishment of apoptosis induced with Ph3SnL1 in MCF-7 cells (confirmed with AO and DAPI assays) was not disturbed as this type of cell death may be activated through other death signals not involving caspase activation.
The cells were resuspended in 1 mL of PBS and analysed with flow cytometry.

O=C(CCc1nc(-c2ccccc2)c(-c2ccccc2)o1)[O][Sn]([c]1ccccc1)([c]1ccccc1)[c]1ccccc1 [Ph3SnL1, (3-(4,5-Diphenyloxazol-2-yl)propanoato)triphenyltin(IV)]
mode of cell death: induces caspase-independent apoptosis | caspase activation (apostat) (48 h, IC50 concentration): did not induce the activation of caspases
